US12172941B2, “Organic compound and organic light-emitting device” (CANON KABUSHIKI KAISHA, priority 2020, dated 2024)

What was measured:
Type in all cases: physicochemical
[1] = Photoluminescence emission spectrum of toluene solution (F-4500); conditions: toluene solution 1×10^−5 mol/l, room temperature, excitation 350 nm
Description: The measurement was performed by measuring photoluminescence with F-4500 manufactured by Hitachi, Ltd. at room temperature and at an excitation wavelength of 350 nm.

[2] = Absolute PL quantum yield in solution (C9920-02); conditions: room temperature, relative value
[3] = Difference between decomposition temperature (TG/DTA) and sublimation temperature; conditions: decomposition: 5% weight loss in TG/DTA; sublimation: vacuum 1×10^−1 Pa, Ar flow
Description: The decomposition temperature is a temperature at which the weight loss reaches 5% in TG/DTA measurement. […] In the toluene solubility test performed in a nitrogen atmosphere under reflux by heating while stirring, dissolution was visually inspected and was expressed as a relative value with respect to the amount of toluene (1.0) used to completely dissolve the exemplary compound A1.

| SMILES | Emission wavelength max [1] | Quantum yield ([2]; exemplary compound A17 = 1.00) | λmax [1] | Quantum yield ([2]; exemplary compound D2 = 1.00) | Decomposition temperature-sublimation temperature [3] [°C] |
| --- | --- | --- | --- | --- | --- |
| c1ccc(-c2cc3c4cc5c(cc4c(-c4ccccc4)cc3c3cc4c(cc23)-c2cccc3cccc-4c23)-c2cccc3c2c-5cc2ccccc23)cc1 [Exemplary compound A17] | 449 | 1.00 | – | – | – |
| c1ccc(-c2cc3c4cc5c(cc4c(-c4ccccc4)cc3c3cc4c(cc23)-c2cccc3cccc-4c23)-c2cccc3cccc-5c23)cc1 [Comparative compound (1)] | 449 | 0.95 | 449 | 0.95 | – |
| Cc1ccc(-c2cc3c4cc5c(cc4c(-c4ccc(C)cc4)cc3c3cc4c(cc23)-c2cc3ccccc3c3cccc-4c23)-c2cc3ccccc3c3cccc-5c23)cc1 [Exemplary compound D2] | – | – | 453 | 1.00 | – |
| c1ccc(-c2c3c(c(-c4ccccc4)c4c2ccc2c5cc6c(cc5ccc24)-c2cccc4cccc-6c24)-c2cccc4cccc-3c24)cc1 [Comparative compound (2)] | – | – | – | – | 70 |
| c1ccc(-c2c3c(c(-c4ccccc4)c4c2ccc2c5cc6c(cc5ccc24)-c2cccc4cccc-6c24)-c2cc4ccccc4c4cccc-3c24)cc1 [Exemplary compound A1] | – | – | – | – | 90 |
